Measured values reported in patent US20230014907A1, “INHIBITORS OF APOL1 AND METHODS OF USING SAME” (Vertex Pharmaceuticals Incorporated, priority 2020, published 2023).

These compounds were tested against T1, G1 APOL1 (Homo sapiens, UniProt O14791, I384M/S342G) (assay: Acute APOL1 Thallium Assay with Inducible Stable Clones of HEK 293 Cells). Conditions: HEK 293 inducible stable clones, G1 APOL1; read-out: Thallium Assay (IC50).
T1 construct: expressed in transfected cells
T1 sequence (O14791 28-398 S342G/I384M): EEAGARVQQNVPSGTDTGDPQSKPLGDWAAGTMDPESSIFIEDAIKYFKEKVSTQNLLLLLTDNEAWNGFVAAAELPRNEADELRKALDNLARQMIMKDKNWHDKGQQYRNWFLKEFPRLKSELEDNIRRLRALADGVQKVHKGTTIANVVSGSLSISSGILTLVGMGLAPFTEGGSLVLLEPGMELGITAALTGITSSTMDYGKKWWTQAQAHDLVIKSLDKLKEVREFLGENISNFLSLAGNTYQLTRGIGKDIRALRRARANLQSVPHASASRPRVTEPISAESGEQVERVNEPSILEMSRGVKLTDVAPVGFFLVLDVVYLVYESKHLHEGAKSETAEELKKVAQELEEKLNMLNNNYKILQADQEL
Type: cell-based
Description: Acute APOL1 Thallium Assay with Inducible Stable Clones of HEK 293 Cells
Apolipoprotein L1 (APOL1) proteins form potassium-permeable cation pores in the plasma membrane. APOL1 risk variants (G1 and G2) induce greater potassium flux than G0 in HEK293 cells. This assay exploits the permeability of thallium (Tl+) through ligand-gated potassium channels. The dye produces a bright fluorescent signal upon binding to Tl+ conducted through potassium channels. The intensity of the Tl+ signal is proportional to the number of potassium channels in the open state. Therefore, it provides a functional indication of the potassium channel activities. During the initial dye-loading step, the Tl+ indicator dye as an acetoxymethyl (AM) ester enters the cells through passive diffusion. Cytoplasm esterases cleave the AM ester and relieve its active thallium-sensitive form. The cells are then stimulated with Tl+. The increase of fluorescence in the assay represents the influx of Tl+ into the cell specifically through the potassium channel (i.e. through APOL1 pores), providing a functional measurement of potassium channel/pore activity. The Thallium assay is conducted with cells expressing G1 APOL1.
APOL1 Cell Line (HEK T-Rex Stable Inducible Cell Line) • HEK T-Rex System • Tetracycline (Tet) inducible mammalian expression system. • Stably express the Tet repressor to regulate transcription. • Expression under the full-length CMV promoter. • APOL1 stable inducible cell line Clone used: G1 DC3.25
Tissue Culture Media • Cell Culture Medium • DMEM+10% FBS+P/S+5 μg/mL blasticidin+1 μg/mL puromycin. • 500 mL DMEM+55 mL FBS+5 mL P/S+280 μL blasticidin S HCl (10 mg/mL)+56 μL puromycin (10 mg/mL). • Cell Assay Medium • DMEM with 2% FBS+penicillin/streptomycin.
Instruments and Equipment • Nuaire cell culture hood, Cat. No. 540-600 • 37° C./5% CO2 incubator link to robotic arm, Liconic: STX110 • Molecular Devices FLIPR^Tetra High throughput cellular screening system, Cat. No. FT0324, Molecular Devices • ThermoFisher MultiDrop 384, Cat. No. 5840300 • Biotek Microfill, Cat. No. ASF1000A-4145 • BioRad TC10 cell counter, Cat. No. 145-0010
Cells Scaled Up from Frozen Vials • APOL1 G1 3.25 (HEK293 T-Rex) frozen vials: 5 million cells per vial • Step 1, Day 1: Defrost frozen vial into T-225. • Step 2, Day 5: (when 85% confluent): Split one T-225 at 3×10^6 cells per flask. • Step 3, Day 8: Splits cells to set up for the assay plates as described below.
T-Rex APOL1 HEK cells are split twice per week to keep the confluence state below 85% of the culture flask surface area. Cells can be kept until passage 25. • Cell Culture Medium • DMEM high glucose+10% FBS, +P/S, +5 μg/mL blasticidin, +1 μg/mL puromycin. • 500 mL DMEM, +55 mL FBS, +5 mL P/S, +280 μL blasticidin 10 mg/mL, +56 μL Puromycin 10 mg/mL. • Assay Media • Opti-MEM reduced serum medium from Invitrogen.
Preparation of Cell Assay Plates • Culture medium is removed from the x cm^2 T-flask by aspiration. • The cell monolayer is rinsed with PBS 1× at room temperature. PBS is removed by aspiration. • Cells are trypsinized using Trypsin. • The flasks are incubated at room temperature for 2-3 minutes. • Complete DMEM medium is then added. Cell suspension is then transferred to a 50 mL Falcon polypropylene tube. • Cells are then counted using a BioRad TC10 cell counter and the required amount of cells are centrifuged at 1200 RPM for 5 minutes. Required amount is 1.3×10^6 cells/mL APOL1 T-Rex HEK cells. • The pellet is suspended in the assay medium. • Using the MultiDrop, add 20 μL to each well (corresponds to 26000 cells total per well) of a 384-well black, transparent, flat bottom Poly-D coated plate. • Tetracycline as prepared in the following section is added to the cells before plating to induce APOL1 expression. • Plates are left at room temperature for 20 to 30 minutes before incubation at 37° C. and 5% CO2. […]

First: O=C(/C=C/c1c(-c2ccc(F)cc2)[nH]c2c(F)cc(F)cc12)N[C@H]1CCNC1=O [Compound 519, (E)-3-[5,7-difluoro-2-(4-fluorophenyl)-1H-indol-3-yl]-N-[(3S)-2-oxopyrrolidin-3-yl]prop-2-enamide]
Second: O=C1NCCCC1C(=O)NCCc1c(-c2ccc(F)cc2)[nH]c2c(F)cc(F)cc12 (stereo not shown) [Compound 330]
The IC50 of the first is lower: less than 250 nM for the first, greater than 1000 nM for the second.

Compared with `CC(C#N)(CO)NC(=O)OCCc1c(-c2ccc(F)cc2)[nH]c2c(F)cc(F)cc12` (racemic) [Compound 461], `NC(=O)CNC(=O)OCCc1c(-c2ccc(F)cc2)[nH]c2c(F)cc(F)cc12` [Compound 452] is lower in IC50: 250 to 1000 nM for the first, less than 250 nM for the second. The second is the more potent here.

Compared with `C[C@H](N)C(=O)NCCc1c(-c2ccc(F)cc2)[nH]c2c(F)cc(F)cc12` [Compound 363], `C[C@H](O)C(=O)NCCc1c(-c2ccc(F)cc2)[nH]c2c(F)cc(F)cc12` [Compound 362] is lower in IC50: greater than 1000 nM for the first, 250 to 1000 nM for the second.

First: Cc1cc(F)c2[nH]c(-c3ccc(F)cc3)c(CCC(=O)N[C@H](C)CO)c2c1 [Compound 213]
Second: Cc1cc(F)c2[nH]c(-c3ccc(F)cc3)c(CCC(=O)NCCO)c2c1 [Compound 218]
The IC50 of the first is lower: 250 to 1000 nM for the first, greater than 1000 nM for the second.

First: C[C@@H]1NC(=O)[C@H]1NC(=O)CCc1c(-c2ccc(F)cc2)[nH]c2c(F)cc(F)cc12 [Compound 96]
Second: O=C(CCCc1c(-c2ccc(F)cc2)[nH]c2c(F)cc(F)cc12)N[C@H]1C[C@@H](CO)NC1=O [Compound 256]
The IC50 of the first is lower: 250 to 1000 nM for the first, greater than 1000 nM for the second.

`CC(C)(O)CNC(=O)NCCc1c(-c2ccc(F)cc2)[nH]c2c(F)cc(F)cc12` [Compound 279] and `CC(C)(O)CCNC(=O)NCCc1c(-c2ccc(F)cc2)[nH]c2c(F)cc(F)cc12` [Compound 270] cannot be ordered by IC50: greater than 1000 nM for the first, greater than 1000 nM for the second.

`CC(CCO)NC(=O)CCc1c(-c2ccc(F)cc2)[nH]c2c(F)cc(Cl)cc12` (racemic) [Compound 200] and `N#CC(CO)NC(=O)CCc1c(-c2ccc(F)cc2)[nH]c2c(F)cc(Cl)cc12` (stereo not shown) [Compound 198] fall in the same range of IC50: 250 to 1000 nM for the first, 250 to 1000 nM for the second.

`CNCCc1c(-c2ccc(F)cc2)[nH]c2c(F)cc(F)cc12` [Compound 428, 2-[5,7-difluoro-2-(4-fluorophenyl)-1H-indol-3-yl]-N-methyl-ethanamine] and `O=C(NCCc1c(-c2ccc(F)cc2)[nH]c2c(F)cc(F)cc12)C(F)F` [Compound 414] cannot be ordered by IC50: greater than 1000 nM for the first, greater than 1000 nM for the second.

`O=C(NC[C@H](O)CO)OCCc1c(-c2ccc(F)cc2)[nH]c2c(F)cc(F)cc12` [Compound 470] and `O=C(NCC(O)CO)OCCc1c(-c2ccc(F)cc2)[nH]c2c(F)cc(F)cc12` (stereo not shown) [Compound 468] fall in the same range of IC50: 250 to 1000 nM for the first, 250 to 1000 nM for the second.

Compared with `CNC(=O)CCCc1c(-c2ccc(F)cc2)[nH]c2c(F)cc(F)cc12` [Compound 239, 4-(5,7-difluoro-2-(4-fluorophenyl)-1H-indol-3-yl)-N-methylbutanamide], `Cn1cc(CNC(=O)CCCc2c(-c3ccc(F)cc3)[nH]c3c(F)cc(F)cc23)nn1` [Compound 251] is higher in IC50: 250 to 1000 nM for the first, greater than 1000 nM for the second. The first is the more potent here.

Going from `CC1(CO)CCN1C(=O)OCCc1c(-c2ccc(F)cc2)[nH]c2c(F)cc(F)cc12` (racemic) [Compound 480] to `O=C(NC1(CO)CC1)OCCc1c(-c2ccc(F)cc2)[nH]c2c(F)cc(F)cc12` [Compound 438], the IC50 falls from greater than 1000 nM to less than 250 nM. The second is the more potent here.

First: CC(CO)C(=O)NCCc1c(-c2ccc(F)cc2)[nH]c2c(F)cc(F)cc12 (racemic) [Compound 357]
Second: O=C(NCCc1c(-c2ccc(F)cc2)[nH]c2c(F)cc(F)cc12)C(O)CO (stereo not shown) [Compound 310]
The IC50 of the first is lower: less than 250 nM for the first, 250 to 1000 nM for the second.

`O=C(NCCc1c(-c2ccc(F)cc2)[nH]c2c(F)cc(F)cc12)c1cc(C(F)(F)F)n[nH]1` [Compound 315] and `O=C(NCCc1c(-c2ccc(F)cc2)[nH]c2c(F)cc(F)cc12)c1cn[nH]c1` [Compound 352] cannot be ordered by IC50: greater than 1000 nM for the first, greater than 1000 nM for the second.

`O=C(NCc1cccnc1)OCCc1c(-c2ccc(F)cc2)[nH]c2c(F)cc(F)cc12` [Compound 497] and `O=C(NCc1ccco1)OCCc1c(-c2ccc(F)cc2)[nH]c2c(F)cc(F)cc12` [Compound 481] cannot be ordered by IC50: greater than 1000 nM for the first, greater than 1000 nM for the second.

`O=C(NCc1cn(CC(F)(F)F)cn1)OCCc1c(-c2ccc(F)cc2)[nH]c2c(F)cc(F)cc12` [Compound 493] and `Cc1cnc(CNC(=O)OCCc2c(-c3ccc(F)cc3)[nH]c3c(F)cc(F)cc23)o1` [Compound 487] cannot be ordered by IC50: greater than 1000 nM for the first, greater than 1000 nM for the second.

`NC(=O)CNC(=O)CCc1c(-c2ccc(F)cc2)[nH]c2c(F)cc(Cl)cc12` [Compound 201] and `O=C(CNC(=O)NCCc1c(-c2ccc(F)cc2)[nH]c2c(F)cc(F)cc12)NO` [Compound 260] cannot be ordered by IC50: greater than 1000 nM for the first, greater than 1000 nM for the second.

`O=C(NCCc1c(-c2ccc(F)cc2)[nH]c2c(F)cc(F)cc12)c1ncccn1` [Compound 397] and `O=C(Cc1nccs1)NCCc1c(-c2ccc(F)cc2)[nH]c2c(F)cc(F)cc12` [Compound 376] cannot be ordered by IC50: greater than 1000 nM for the first, greater than 1000 nM for the second.

`C[C@H](NC(=O)NCCc1c(-c2ccc(F)cc2)[nH]c2c(F)cc(F)cc12)C(C)(C)O` [Compound 268] and `CC(C)[C@@H](CO)NC(=O)NCCc1c(-c2ccc(F)cc2)[nH]c2c(F)cc(F)cc12` [Compound 269] cannot be ordered by IC50: greater than 1000 nM for the first, greater than 1000 nM for the second.

`O=C1CC(C(=O)NCCc2c(-c3ccc(F)cc3)[nH]c3c(F)cc(F)cc23)CO1` (stereo not shown) [Compound 383] and `O=C(NCCc1c(-c2ccc(F)cc2)[nH]c2c(F)cc(F)cc12)C1COC1` [Compound 413] cannot be ordered by IC50: greater than 1000 nM for the first, greater than 1000 nM for the second.

Compared with `O=C(NCCc1c(-c2ccc(F)cc2)[nH]c2c(F)cc(F)cc12)N[C@H](CO)C(F)(F)F` [Compound 262], `O=C(NCCc1c(-c2ccc(F)cc2)[nH]c2c(F)cc(F)cc12)C1CC1` [Compound 415] is higher in IC50: less than 250 nM for the first, 250 to 1000 nM for the second. The first is the more potent here.

`Cc1ccnn1CCC(=O)NCCc1c(-c2ccc(F)cc2)[nH]c2c(F)cc(F)cc12` [Compound 372] and `O=C(Cn1cccc1)NCCc1c(-c2ccc(F)cc2)[nH]c2c(F)cc(F)cc12` [Compound 395] cannot be ordered by IC50: greater than 1000 nM for the first, greater than 1000 nM for the second.

`NC(=O)[C@H](CO)NC(=O)OCCc1c(-c2ccc(F)cc2)[nH]c2c(F)cc(F)cc12` [Compound 475] and `CC1(O)CC(NC(=O)OCCc2c(-c3ccc(F)cc3)[nH]c3c(F)cc(F)cc23)C1` (mixture of isomers) [Compound 495] cannot be ordered by IC50: greater than 1000 nM for the first, greater than 1000 nM for the second.

First: O=C(NCCc1c(-c2ccc(F)cc2)[nH]c2c(F)cc(F)cc12)NCC1CCCOC1 (stereo not shown) [Compound 293]
Second: O=C(NC1CCOC1)OCCc1c(-c2ccc(F)cc2)[nH]c2c(F)cc(F)cc12 (stereo not shown) [Compound 463]
The IC50 of the first is higher: greater than 1000 nM for the first, 250 to 1000 nM for the second. The second is the more potent here.

`O=C(NCCc1ccncc1)NCCc1c(-c2ccc(F)cc2)[nH]c2c(F)cc(F)cc12` [Compound 288] and `O=C(NCCc1c(-c2ccc(F)cc2)[nH]c2c(F)cc(F)cc12)NCc1ccoc1` [Compound 299] cannot be ordered by IC50: greater than 1000 nM for the first, greater than 1000 nM for the second.

Work on `O=C(CCc1c(-c2ccc(F)cc2)[nH]c2ccc(F)cc12)N[C@@H](CO)C(F)F` [Compound 3] yielded an IC50 of 250 to 1000 nM.
